Target: T1, mPPARαLBD/Gal4DBD (Mus musculus, UniProt P23204)
T1 construct: expressed in transfected cells; host or cells: COS-7 (monkey kidney fibroblasts)
T1 sequence (P23204 239-466 limits assumed): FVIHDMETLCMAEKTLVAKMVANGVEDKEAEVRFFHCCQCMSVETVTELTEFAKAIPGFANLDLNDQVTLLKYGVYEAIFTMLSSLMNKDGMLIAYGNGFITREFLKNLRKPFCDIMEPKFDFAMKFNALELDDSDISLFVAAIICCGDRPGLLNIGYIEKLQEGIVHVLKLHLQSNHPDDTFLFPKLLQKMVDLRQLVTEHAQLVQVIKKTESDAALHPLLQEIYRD
Assay: Transactivation assay mediated by mPPARαLBD/Gal4DBD in COS-7 cells (CAT reporter)
Type: cell-based
Text: In this model a transactivation assay is used in which the expression vector mPPARαLBD/Gal4 DBD allows the synthesis by the transfected cell of a chimeric protein, in which the ligand binding domain (LBD) of PPARα is fused with the DNA binding domain (DBD) of the transcription factor GAL4 of yeast [Luckow B. et al., Nucleic Acids Res. 15, 5490 (1987)]. Simultaneously, a plasmid (pG5CAT) is transfected which contains 5 copies of the high-affinity binding site for GAL4 (also called UAS, upstream activating sequence), upstream of the viral promoter E1b fused with the CAT reporter gene [Moya-Camarena S. Y. et al., J. Lipid Res. 40 (8), 1426-33 (1999)]. This model eliminates interference by possible endogenous receptors.
This is due to the fact that the activation of E1b and the production of CAT will occur exclusively thanks to the interaction of GAL4 DBD with its own response element (UAS). Since the transcription factor GAL4 is not expressed in […] cells, transactivation of the reporter gene can take place only when, as a result of the interaction of a ligand with the LBD of PPARα, the chimeric protein PPARα/GAL4 recognises the UAS sequence on the plasmid pG5CAT. Together with the expression vector and the reporter vector the cells were also transfected with the plasmid pCH110 which provides the internal control for the efficiency of transfection and the normalisation of the results.
A monkey kidney fibroblast cell line (COS-7) was used [Elbrecht A. et al., J. Biol. Chem. 274 (12), 7913-22 (1999)]. The cells were co-transfected with the reporter vector, the expression plasmid coding for the fusion protein Gal4 DBD/PPARαLBD and the control vector pCH110. The cells were exposed to increasing concentrations of the study compounds and CAT activity was evaluated. Untreated cells were used as controls.
Monkey kidney fibroblasts (COS-7) were cultured according to the usual cell culture techniques, at 37° C. in a 5% v/v carbon dioxide atmosphere using as the growth medium DMEM (Dulbecco's modified Eagle's medium) modified with 3.7 g/l of sodium bicarbonate, 4 mM L-glutamine, 4.5 g/l of glucose, 1 mM sodium pyruvate and 10% v/v of foetal bovine serum, in the presence of streptomycin 100 μg/ml and penicillin 100 U/ml final.
The cells were co-transfected using the transfection reagent FuGENE6 (Roche), consisting of a defined mixture of lipids capable of complexing the DNA and of transporting it into the cells. Twenty-four hours prior to transfection the cells were plated at a density of 1.2×10^5 cells/well in 12-well plates and maintained at 37° C. in a 5% v/v CO2 atmosphere. […] Briefly, the transfection mixture containing 0.8 μg of the expression vector, 1.6 μg of the reporter vector, 0.8 μg of the control vector and 9 μl of the FuGENE6 reagent per well was added directly to the cells in the presence of culture medium devoid of serum. After 5 hours, the transfection medium was replaced by 1 ml of culture medium complete with serum and antibiotics in the presence or absence of the molecules to be tested at 3 different concentrations (2, 20 and 100 μM). Wy-14,643 (2 μM), a known ligand of PPARα, was used as the positive reference compound.
After 48 hours' incubation at 37° C. in a 5% v/v CO2 atmosphere, the cells were washed twice with 1 ml of phosphate buffer (PBS) and removed mechanically from the wells in TEN buffer (Tris[hydroxymethyl]aminomethane 10 mM pH 8, ethylenediamine-tetraacetic acid 1 mM pH 8, sodium chloride 0.1 M). After centrifuging for 3 minutes at 1000 rpm, the cells were resuspended in 65 μl of lysis buffer (Tris-HCl 0.25 M, pH 8) and then lysed thanks to three rapid freeze-thaw cycles. The insoluble cellular materials (debris) were removed by centrifuging at 15,000 rpm for 15 minutes at 4° C., and the supernatant was recovered and used for the CAT and β-galactosidase activity assays. […]

Activation of reporter gene CAT as a percentage of the reference compound (WY-14,643 2 μM = 100%) (2 μM): 69.7% | Activation of reporter gene CAT as a percentage of the reference compound (WY-14,643 2 μM = 100%) (20 μM): 103.6% | Activation of reporter gene CAT as a percentage of the reference compound (WY-14,643 2 μM = 100%) (100 μM): 280.9%
SMILES: CC(C)(Sc1cccc(OCCc2ccc(Cl)cc2)c1)C(=O)O [Example 2, 2-[3-[2-(4-chlorophenyl)ethoxy]phenylthio]-2-methylpropanoic acid]
